Data: patent US20100210633A1, “CARBOXAMIDE COMPOUNDS AND THEIR USE” (EPIX Delaware, Inc., priority 2006, published 2010)

Molecular target: CCR2 (Homo sapiens, UniProt P41597)
Assay: calcium flux assay
Assay type: cell-based
Details: read-out: IC50 Ca++ flux
Source text: The capacity of the compounds of the invention to antagonize CCR2 function can be determined using a suitable screen (e.g., high throughput assay). For example, an agent can be tested in an extracellular acidification assay, calcium flux assay, ligand binding assay or chemotaxis assay (see, for example, Hesselgesser et al., J Biol. Chem. 273(25):15687-15692 (1998), WO 00/05265 and WO 98/02151).

Chain of CCR2 (P41597 whole entry): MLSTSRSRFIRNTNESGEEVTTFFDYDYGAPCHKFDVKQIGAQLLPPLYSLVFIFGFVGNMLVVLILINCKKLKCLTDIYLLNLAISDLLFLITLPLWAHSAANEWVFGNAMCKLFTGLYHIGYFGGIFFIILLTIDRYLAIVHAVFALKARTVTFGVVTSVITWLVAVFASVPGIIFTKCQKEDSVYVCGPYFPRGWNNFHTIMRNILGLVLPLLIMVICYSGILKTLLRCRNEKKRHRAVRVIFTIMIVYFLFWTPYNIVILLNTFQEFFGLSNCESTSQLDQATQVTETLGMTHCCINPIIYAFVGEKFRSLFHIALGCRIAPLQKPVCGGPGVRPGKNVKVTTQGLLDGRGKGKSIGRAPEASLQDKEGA

Row | SMILES | IC50
1 | COCC1(C(=O)NCc2cc(C(F)(F)F)cc(C(F)(F)F)c2)CCN(CC2CCOCC2)CC1 [Example 11, N-(3,5-Bis(trifluoromethyl)benzyl)-1-((tetrahydro-2H-pyran-4-yl)methyl)-4-(methoxymethyl)piperidine-4-carboxamide] | > 1 µM
2 | CC(C)CC1(C(=O)NCc2cc(C(F)(F)F)cc(C(F)(F)F)c2)CCN(CC2CCOCC2)CC1 [Example 12, N-(3,5-Bis(trifluoromethyl)benzyl)-4-isobutyl-1-((tetrahydro-2H-pyran-4-yl)methyl)piperidine-4-carboxamide] | > 1 µM
3 | O=C(NCc1cc(C(F)(F)F)cc(C(F)(F)F)c1)C1(Cc2ccncc2)CCN(CC2CCOCC2)CC1 [Example 13, N-(3,5-Bis(trifluoromethyl)benzyl)-4-(pyridin-4-ylmethyl)-1-((tetrahydro-2H-pyran-4-yl)methyl)piperidine-4-carboxamide] | > 1 µM
4 | CC(C)CC1(C(=O)NCc2cc(C(F)(F)F)cc(C(F)(F)F)c2)CCN(CCN2CCCCC2)CC1 [Example 18, N-(3,5-Bis(trifluoromethyl)benzyl)-4-isobutyl-1-(2-(piperidin-1-yl)ethyl)piperidine-4-carboxamide] | > 1 µM
5 | CC(C)CC1(C(=O)NCc2cc(C(F)(F)F)cc(C(F)(F)F)c2)CCN(c2ccccn2)CC1 [Example 19, N-(3,5-Bis(trifluoromethyl)benzyl)-4-isobutyl-1-(pyridin-2-yl)piperidine-4-carboxamide] | > 1 µM
6 | CC(C)CC1(C(=O)NCc2cc(C(F)(F)F)cc(C(F)(F)F)c2)CCN(Cc2ccc3c(c2)OCO3)CC1 [Example 21, 1-(Benzo[d][1,3]dioxol-5-ylmethyl)-N-(3,5-bis(trifluoromethyl)benzyl)-4-isobutylpiperidine-4-carboxamide] | 0.2 to 1 µM
7 | CC(C)CC1(C(=O)NCc2cc(C(F)(F)F)cc(C(F)(F)F)c2)CCN(C2CCC(O)(c3ccc4c(c3)OCO4)CC2)CC1 (stereo not drawn) [Example 26, 1-(4-(Benzo[d][1,3]dioxol-5-yl)-4-hydroxycyclohexyl)-N-(3,5-bis(trifluoromethyl)benzyl)-4-isobutylpiperidine-4-carboxamide] | 0.2 to 1 µM
8 | O=C(NCc1cc(C(F)(F)F)cc(C(F)(F)F)c1)C1(CC2CCOCC2)CCN(Cc2ccc3c(c2)OCO3)CC1 [Example 27, 1-(Benzo[d][1,3]dioxol-5-ylmethyl)-N-(3,5-bis(trifluoromethyl)benzyl)-4-((tetrahydro-2H-pyran-4-yl)methyl)piperidine-4-carboxamide] | > 1 µM
9 | COc1ccc(CN2CCC(CC(C)C)(C(=O)NCc3cc(C(F)(F)F)cc(C(F)(F)F)c3)CC2)cc1O [Example 30, N-(3,5-Bis(trifluoromethyl)benzyl)-1-(3-hydroxy-4-methoxybenzyl)-4-isobutylpiperidine-4-carboxamide] | < 0.2 µM
10 | CC(C)CC1(C(=O)N2CCN(c3cccc(C(F)(F)F)c3)CC2)CCN(Cc2ccc3c(c2)OCO3)CC1 [Example 40, (1-(Benzo[d][1,3]dioxol-5-ylmethyl)-4-isobutylpiperidin-4-yl)(4-(3-(trifluoromethyl)phenyl)piperazin-1-yl)methanone] | > 1 µM
11 | CC(C)CC1(C(=O)N[C@H](C)c2cc(C(F)(F)F)cc(C(F)(F)F)c2)CCN(Cc2ccc3c(c2)OCO3)CC1 [Example 44, (R)-1-(Benzo[d][1,3]dioxol-5-ylmethyl)-N-(1-(3,5-bis(trifluoromethyl)phenyl)ethyl)-4-isobutylpiperidine-4-carboxamide] | > 1 µM
12 | CC(C)CC1(C(=O)N[C@@H](C)c2cc(C(F)(F)F)cc(C(F)(F)F)c2)CCN(Cc2ccc3c(c2)OCO3)CC1 [Example 45, (S)-1-(benzo[d][1,3]dioxol-5-ylmethyl)-N-(1-(3,5-bis(trifluoromethyl)phenyl)ethyl)-4-isobutylpiperidine-4-carboxamide] | > 1 µM
13 | O=C(NCc1cc(C(F)(F)F)cc(C(F)(F)F)c1)C1(CC2CC2)CCN(Cc2ccc3c(c2)OC(F)(F)O3)CC1 [Example 50, N-(3,5-Bis(trifluoromethyl)benzyl)-4-(cyclopropylmethyl)-1-((2,2-difluorobenzo[d][1,3]dioxol-5-yl)methyl)piperidine-4-carboxamide] | < 0.2 µM
14 | CC(C)CC1(C(=O)NCc2cc(C(F)(F)F)cc(C(F)(F)F)c2)CCN(CC(=O)N2CCS(=O)(=O)CC2)CC1 [Example 53, N-(3,5-Bis(trifluoromethyl)benzyl)-4-isobutyl-1-(2-oxo-2-sulphonylmorpholinoethyl)piperidine-4-carboxamide] | > 1 µM
15 | O=C(NCCN1CCCC1)c1cc(CN2CCC(CC3CC3)(C(=O)NCc3cc(C(F)(F)F)cc(C(F)(F)F)c3)CC2)ccc1F [Example 59, N-(3,5-Bis(trifluoromethyl)benzyl)-4-(cyclopropylmethyl)-1-(4-fluoro-3-(2-(pyrrolidin-1-yl)ethylcarbamoyl)benzyl)piperidine-4-carboxamide] | > 1 µM
16 | CCS(=O)(=O)NC(=O)c1cc(CN2CCC(CC3CC3)(C(=O)NCc3cc(C(F)(F)F)cc(C(F)(F)F)c3)CC2)ccc1F [Example 64, N-(3,5-Bis(trifluoromethyl)benzyl)-4-(cyclopropylmethyl)-1-(3-(ethylsulfonylcarbamoyl)-4-fluorobenzyl)piperidine-4-carboxamide] | 0.2 to 1 µM
17 | N#Cc1ccc(Oc2ccc(CN3CCC(CC4CC4)(C(=O)NCc4cc(C(F)(F)F)cc(C(F)(F)F)c4)CC3)cn2)cc1 [Example 67, N-(3,5-Bis(trifluoromethyl)benzyl)-1-((6-(4-cyanophenoxy)pyridin-3-yl)methyl)-4-(cyclopropylmethyl)piperidine-4-carboxamide] | 0.2 to 1 µM
18 | CC(C)(CN1CCC(CC2CC2)(C(=O)NCc2cc(C(F)(F)F)cc(C(F)(F)F)c2)CC1)N1CCOCC1 [Example 69, N-(3,5-Bis(trifluoromethyl)benzyl)-4-(cyclopropylmethyl)-1-(2-methyl-2-morpholinopropyl)piperidine-4-carboxamide] | 0.2 to 1 µM
19 | O=C(O)c1cc(CN2CCC(CC3CC3)(C(=O)NCc3cc(C(F)(F)F)cc(C(F)(F)F)c3)C2)ccc1F (stereo not drawn) [Example 79, 5-((3-(3,5-Bis(trifluoromethyl)benzylcarbamoyl)-3-(cyclopropylmethyl)pyrrolidin-1-yl)methyl)-2-fluorobenzoic acid] | 0.2 to 1 µM
20 | COc1ccc(CN2CCC(CC3CC3)(C(=O)NCc3cc(C(F)(F)F)cc(C(F)(F)F)c3)C2)cc1F (stereo not drawn) [Example 80, N-(3,5-Bis(trifluoromethyl)benzyl)-3-(cyclopropylmethyl)-1-(3-fluoro-4-methoxybenzyl)pyrrolidine-3-carboxamide] | 0.2 to 1 µM
21 | O=C(NCc1cc(C(F)(F)F)cc(C(F)(F)F)c1)C1(CC2CC2)CCN(CC2CCOCC2)C1 (stereo not drawn) [Example 81, N-(3,5-Bis(trifluoromethyl)benzyl)-3-(cyclopropylmethyl)-1-((tetrahydro-2H-pyran-4-yl)methyl)pyrrolidine-3-carboxamide] | < 0.2 µM
